According to patent publication US20210386068A1, “COMPOSITIONS COMPRISING PYRIDINE CARBOXYLATE HERBICIDES AND VERY LONG CHAIN FATTY ACID (VLCFA) SYNTHESIS INHIBITOR HERBICIDES” (priority 2018, published 2021):
“And” between values parts separate entries of the source, which are not always exact repeats. Equal entries are not always repeated.

How the values were obtained:
[1] = tested on: Lamium purpureum (purple deadnettle, LAMPU); assay: Greenhouse postemergence herbicidal effect, visual injury 20-22 d after spraying, purple deadnettle (LAMPU); assay type: in vivo
From the text: (§1) Seeds of the desired test plant species were planted in a 90:10% v/v (volume/volume) mixture of PRO-MIX® BX (Premier Tech Horticulture, Quakertown, Pa., USA) and PROFILE® GREENS GRADE™ (Profile Products LLC, Buffalo Grove, Ill., USA) planting mixture, which typically has a pH of 5.2 to 6.2 and an organic matter content of at least 50 percent, in plastic pots with a surface area of 103.2 square centimeters (cm^2). In some aspects, to ensure good germination and healthy plants, a fungicide treatment and/or other chemical or physical treatment was applied. The plants were grown for 7-36 days (d) in a greenhouse with an approximate 14-hour (h) photoperiod which was maintained at about 23° C. during the day and 22° C. during the night. Nutrients and water were added on a regular basis and supplemental lighting was provided with overhead metal halide 1000-Watt lamps as necessary. The plants were employed for testing when they reached the second or third true leaf stage.
(§2) Emulsifiable concentrates of each of each pyridine carboxylate herbicide (Compound A or Compound B) were prepared at 100 grams acid equivalent per liter (g ae/L). The emulsifiable concentrates also included a safener, cloquintocet-mexyl, at 120 grams active ingredient per liter (g ai/L). An aliquot of each emulsifiable concentrate was placed in a 25 mL glass vial and diluted with an aqueous mixture of 1.25% (v/v) ACTIROB® B esterified rapeseed oil (Bayer Crop Science, Research Triangle Park, N.C., USA) or MSO® Concentrate with LECI-TECH® methylated soybean oil (Loveland Products, Loveland, Colo., USA) to obtain concentrated stock solutions at the highest application rate for each herbicide, based upon a 12 milliliter (mL) application volume at a rate of 187 liters per hectare (L/ha). The concentrated stock solutions were further diluted with an aqueous mixture of 1.25% v/v ACTIROB® B or MSO® Concentrate with LECI-TECH® to obtain stock solutions at reduced application rates for each herbicide. Spray solutions of the herbicide combinations (Compound A or Compound B plus VLCFA synthesis inhibitor herbicide) were prepared by adding weighed amounts or aliquots of the VLCFA synthesis inhibitor herbicide to the stock solutions of Compound A or Compound B to form 12-mL spray solutions in two-way combinations.
(§3) The spray solutions were applied to the plant material with an overhead Mandel track sprayer equipped with 8002E nozzles calibrated to deliver 187 L/ha over an application area of 0.503 square meters (m^2) at a spray height of 18 inches ([…] (cm)) above the average plant canopy. Control plants were sprayed in the same manner with the solvent blank. All pyridine carboxylate herbicide (component a) application rates are given as “g ae/ha” and all VLCFA synthesis inhibitor herbicide (component b) application rates are given as “g ai/ha.”
(§4) The treated plants and control plants were placed in a greenhouse as described above and watered by sub-irrigation to prevent wash-off of the test compounds. After 20-22 d, the condition of the test plants as compared with that of the control plants was determined visually and scored on a scale of 0 to 100 percent where 0 corresponds to no injury and 100 corresponds to complete kill.

[2] = tested on: Viola tricolor (wild pansy, VIOTR); assay: Greenhouse postemergence herbicidal effect, visual injury 20-22 d after spraying, wild pansy (VIOTR); assay type: in vivo; settings: for % visual injury Obs: VIOTR
From the text: as §1, §2, §3, §4

[3] = tested on: Chenopodium album L. (common lambsquarters, CHEAL); assay: Greenhouse postemergence herbicidal effect, visual injury 20-22 d after spraying, common lambsquarters (CHEAL); assay type: in vivo
From the text: as §1, §2, §3, §4

winter barley (HORVW) = assay: Greenhouse postemergence crop phytotoxicity, visual injury 20-22 d after spraying, winter barley (HORVW); assay type: in vivo, Hordeum vulgare
From the text: as §1, §2, §3, §4

[4] = tested on: Brassica napus (spring rape, BRSNN); assay: Greenhouse postemergence herbicidal effect, visual injury 20-22 d after spraying, spring rape (BRSNN); assay type: in vivo
From the text: as §1, §2, §3, §4

[5] = tested on: Abutilon theophrasti (velvetleaf, ABUTH); assay: Greenhouse postemergence herbicidal effect, visual injury 20-22 d after spraying, velvetleaf (ABUTH); assay type: in vivo
From the text: as §1
(§5) Emulsifiable concentrates of each of each pyridine carboxylate herbicide (Compound A or Compound B) were prepared at 100 grams acid equivalent per liter (g ae/L). The emulsifiable concentrates also included a safener, cloquintocet-mexyl, at 120 grams active ingredient per liter (g ai/L). […]
as §4

[6] = tested on: Cyanus segetum (cornflower, CENCY); assay: Greenhouse postemergence herbicidal effect, visual injury 20-22 d after spraying, cornflower (CENCY); assay type: in vivo
From the text: as §1, §2, §3, §4

[7] = tested on: Veronica hederifolia (ivy-leaved speedwell, VERHE); assay: Greenhouse postemergence herbicidal effect, visual injury 20-22 d after spraying, ivy-leaved speedwell (VERHE); assay type: in vivo
From the text: as §1, §2, §3, §4

[8] = tested on: Helianthus annuus (common sunflower, HELAN); assay: Greenhouse postemergence herbicidal effect, visual injury 20-22 d after spraying, common sunflower (HELAN); assay type: in vivo
From the text: as §1, §5, §4

[9] = tested on: Cirsium arvense (Canadian thistle, CIRAR); assay: Greenhouse postemergence herbicidal effect, visual injury 20-22 d after spraying, Canadian thistle (CIRAR); assay type: in vivo
From the text: as §1, §2, §3, §4

[10] = tested on: Papaver rhoeas (common poppy, PAPRH); assay: Greenhouse postemergence herbicidal effect, visual injury 20-22 d after spraying, common poppy (PAPRH); assay type: in vivo
From the text: as §1, §2, §3, §4

[11] = tested on: Kochia scoparia (kochia, KCHSC); assay: Greenhouse postemergence herbicidal effect, visual injury 20-22 d after spraying, kochia (KCHSC); assay type: in vivo; settings: for % visual injury Obs: KCHSC
From the text: as §1, §2, §3, §4

[12] = tested on: Sinapis arvensis (wild mustard, SINAR); assay: Greenhouse postemergence herbicidal effect, visual injury 20-22 d after spraying, wild mustard (SINAR); assay type: in vivo; settings: for % visual injury Obs: SINAR
From the text: as §1, §2, §3, §4

N#CCOC(=O)c1nc(-c2ccc3cc[nH]c3c2F)c(F)c(N)c1Cl [Compound A, cyanomethyl 4-amino-3-chloro-5-fluoro-6-(7-fluoro-1H-indol-6-yl)pyridine-2-carboxylate]
% visual injury LAMPU Obs ([1]; Compound A 7.5 g/ha): 68%
% visual injury LAMPU Obs ([1]; Compound A 10 g/ha): 73%
% visual injury LAMPU Obs ([1]; Compound A 15 g/ha): 73%
% visual injury VIOTR Obs ([2]; Compound A 7.5 g/ha): 13%
% visual injury VIOTR Obs ([2]; Compound A 10 g/ha): 15%
% visual injury VIOTR Obs ([2]; Compound A 15 g/ha): 15%
% visual injury Obs ([2]; Compound A 7.5 g/ha alone): 3%
% visual injury Obs ([2]; Compound A 10 g/ha alone): 3%
% visual injury Obs ([3]; Compound A 7.5 g/ha alone): 88% and 70% and 60% and 75%
% visual injury Obs ([3]; Compound A 10 g/ha alone): 93% and 83% and 90% and 80%
% visual injury HORVW Obs (winter barley (HORVW); Compound A 7.5 g/ha): 0%
% visual injury HORVW Obs (winter barley (HORVW); Compound A 10 g/ha): 0%
% visual injury HORVW Obs (winter barley (HORVW); Compound A 15 g/ha): 0%
% visual injury Obs ([4]; Compound A 7.5 g/ha alone): 55%
% visual injury Obs ([4]; Compound A 10 g/ha alone): 60% and 70%
% visual injury Obs ([5]; Compound A 7.5 g/ha alone): 40%
% visual injury Obs ([5]; Compound A 10 g/ha alone): 48%
% visual injury CENCY Obs ([6]; Compound A 7.5 g/ha): 75%
% visual injury CENCY Obs ([6]; Compound A 10 g/ha): 78%
% visual injury CENCY Obs ([6]; Compound A 15 g/ha): 80%
% visual injury VERHE Obs ([7]; Compound A 7.5 g/ha): 68%
% visual injury VERHE Obs ([7]; Compound A 10 g/ha): 73%
% visual injury VERHE Obs ([7]; Compound A 15 g/ha): 75%
% visual injury Obs ([8]; Compound A 7.5 g/ha alone): 83%
% visual injury Obs ([8]; Compound A 10 g/ha alone): 88%
% visual injury CIRAR Obs ([9]; Compound A 7.5 g/ha): 50%
% visual injury CIRAR Obs ([9]; Compound A 10 g/ha): 63%
% visual injury CIRAR Obs ([9]; Compound A 15 g/ha): 63%
% visual injury PAPRH Obs ([10]; Compound A 7.5 g/ha): 100%
% visual injury PAPRH Obs ([10]; Compound A 10 g/ha): 99%
% visual injury PAPRH Obs ([10]; Compound A 15 g/ha): 100%
% visual injury KCHSC Obs ([11]; Compound A 7.5 g/ha): 63%
% visual injury KCHSC Obs ([11]; Compound A 10 g/ha): 65%
% visual injury KCHSC Obs ([11]; Compound A 15 g/ha): 63%
% visual injury Obs ([11]; Compound A 7.5 g/ha alone): 63% and 50% and 70%
% visual injury Obs ([11]; Compound A 10 g/ha alone): 63% and 58% and 55% and 70%
% visual injury SINAR Obs ([12]; Compound A 7.5 g/ha): 88%
% visual injury SINAR Obs ([12]; Compound A 10 g/ha): 91%
% visual injury SINAR Obs ([12]; Compound A 15 g/ha): 91%
% visual injury Obs ([12]; Compound A 7.5 g/ha alone): 88% and 85% and 83%
% visual injury Obs ([12]; Compound A 10 g/ha alone): 90% and 92% and 88%
